Assay results taken from US20260078119A1, “DEGRADER COMPOUNDS AND USES THEREOF” (Bristol-Myers Squibb Company, priority 2024, published 2026).

Legend:
CAL-51 cells = experiment: CAL-51 Cell Proliferation Assay; format: cell-based; details: for EC50: Homo sapiens, 120 hours incubation, 10-point dose response, 4-fold dilutions starting at 10 μM, Cell-Titer-Glo, read-out: CAL-51 Prolif EC50; for CAL-51 Prolif Ymin: minimal percent of DMSO control observed in the concentrations tested (Ymin-obs), 120 hours
How it was run: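 EC50 comes from a four-parameter logistic fit of blank-corrected, DMSO-normalised CellTiter-Glo signal after 120 h growth (37 °C, 350 cells/well, RPMI complete medium). Compounds ran as 10-point 4-fold series starting at 10 μM, duplicate, 0.1% DMSO. Ymin-obs records the minimal percent of DMSO control observed.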

FAK = target: T1, FAK (Homo sapiens, UniProt Q05397); experiment: FAK-HiBiT Degradation Assay; format: cell-based; details: for DC50: JHH-4-FAK-HiBiT clone d01 cells, two hours incubation, 10-point dose response, 3-fold dilution starting at 1 μM, Nano-Glo HiBiT luminescence, read-out: FAK HiBiT EC50; for FAK HiBiT Ymin: lower limit of the four parameter fit (value A), Ymax derived using DMSO control, JHH-4-FAK-HiBiT cells, two hours
T1 construct: homozygous knock-in of a HiBiT tag (Promega Corporation, Madison, WI) to the C-terminus of the FAK gene in its natural genomic locus; endogenous in cells; host or cells: JHH-4-FAK-HiBiT clone d01 (CRISPR-Cas9 knock-in at the endogenous locus)
T1 sequence (Q05397 whole entry): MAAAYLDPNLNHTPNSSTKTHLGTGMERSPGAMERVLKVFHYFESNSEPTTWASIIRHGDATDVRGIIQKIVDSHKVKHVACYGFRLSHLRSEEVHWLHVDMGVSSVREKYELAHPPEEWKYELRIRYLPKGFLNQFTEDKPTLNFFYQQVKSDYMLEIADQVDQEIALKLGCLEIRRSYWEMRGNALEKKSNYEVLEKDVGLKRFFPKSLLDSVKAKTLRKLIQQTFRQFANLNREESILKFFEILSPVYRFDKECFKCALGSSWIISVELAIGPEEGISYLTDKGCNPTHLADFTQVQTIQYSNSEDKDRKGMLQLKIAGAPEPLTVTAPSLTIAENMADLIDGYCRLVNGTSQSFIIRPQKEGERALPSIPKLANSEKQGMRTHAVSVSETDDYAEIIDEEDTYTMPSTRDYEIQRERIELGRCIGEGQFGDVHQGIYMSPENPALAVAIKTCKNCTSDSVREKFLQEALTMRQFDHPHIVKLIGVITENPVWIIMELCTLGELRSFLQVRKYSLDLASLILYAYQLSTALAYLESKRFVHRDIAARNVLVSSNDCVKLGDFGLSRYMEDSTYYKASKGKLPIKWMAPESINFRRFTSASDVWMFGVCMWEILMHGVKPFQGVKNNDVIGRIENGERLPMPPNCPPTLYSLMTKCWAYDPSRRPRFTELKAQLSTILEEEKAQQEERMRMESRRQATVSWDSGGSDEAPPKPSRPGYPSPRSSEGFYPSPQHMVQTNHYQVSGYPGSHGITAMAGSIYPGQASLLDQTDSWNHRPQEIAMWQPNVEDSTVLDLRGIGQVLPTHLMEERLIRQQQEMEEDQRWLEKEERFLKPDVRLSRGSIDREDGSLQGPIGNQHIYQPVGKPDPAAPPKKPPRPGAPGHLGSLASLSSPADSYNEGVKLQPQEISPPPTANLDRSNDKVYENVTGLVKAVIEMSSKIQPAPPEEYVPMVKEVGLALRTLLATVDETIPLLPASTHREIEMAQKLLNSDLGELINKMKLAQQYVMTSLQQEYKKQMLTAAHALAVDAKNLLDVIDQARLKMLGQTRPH
How it was run: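 Degradation read out by HiBiT lytic luminescence after 2 h compound exposure (top concentration 1 μM, 3-fold, 10 points) in JHH-4 clone d01 bearing endogenous FAK-HiBiT knock-in. Four-parameter logistic fit gave EC50 and Ymin; DMSO wells defined Ymax.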

DC50 (FAK) [nM]	FAK HiBiT Ymin (FAK)	SMILES	EC50 (CAL-51 cells) [nM]	CAL-51 Prolif Ymin (CAL-51 cells)
29.6	5.76	Cc1nc2c(-c3ncc(F)cc3Cl)cc(N3CC(F)C3)nc2n1Cc1ccc2c(c1)CN(C1CCC(=O)NC1=O)C2=O (stereo not shown) [Example 24, 3-(5-((7-(3-chloro-5-fluoropyridin-2-yl)-5-(3-fluoroazetidin-1-yl)-2-methyl-3H-imidazo[4,5-b]pyridin-3-yl)methyl)-1-oxoisoindolin-2-yl)piperidine-2,6-dione]	4.05	23.72
42.1	11.09	O=C1CC[C@@H](N2Cc3c(ccc(Cn4ncc5c(-c6ncc(F)cc6Cl)cc(N6CC(F)C6)nc54)c3F)C2=O)C(=O)N1 (single isomer, unassigned) [Example 109]	10.2	35.33
169	89.33	O=C1CCC(N2Cc3cc(Cn4ncc5c(-c6ncc(C(F)(F)F)cc6Cl)cc(NC6COC6)nc54)ccc3C2=O)C(=O)N1 (stereo not shown) [Example 126, 3-[5-({4-[3-chloro-5-(trifluoromethyl)pyridin-2-yl]-6-[(oxetan-3-yl)amino]-1H-pyrazolo[3,4-b]pyridin-1-yl}methyl)-1-oxo-2,3-dihydro-1H-isoindol-2-yl]piperidine-2,6-dione]	0.47	91.32
1.73	11.00	CCOc1cnc(-c2cc(N3CC(F)C3)nc3c2cnn3Cc2ccc3c(c2)CN(C2CCC(=O)NC2=O)C3=O)c(Cl)c1 (stereo not shown) [Example 44, 3-(5-{[4-(3-chloro-5-ethoxypyridin-2-yl)-6-(3-fluoroazetidin-1-yl)-1H-pyrazolo[3,4-b]pyridin-1-yl]methyl}-1-oxo-2,3-dihydro-1H-isoindol-2-yl)piperidine-2,6-dione]	0.69	28.22
149	29.00	Cc1cc(F)cnc1-c1cc(N2CC[C@H](O)C2)nc2c1cnn2Cc1ccc2c(c1)CN([C@H]1CCC(=O)NC1=O)C2=O [Example 125, (3S)-3-(5-{[4-(5-fluoro-3-methylpyridin-2-yl)-6-[(3S)-3-hydroxypyrrolidin-1-yl]-1H-pyrazolo[3,4-b]pyridin-1-yl]methyl}-1-oxo-2,3-dihydro-1H-isoindol-2-yl)piperidine-2,6-dione]	262	34.48
213	42.87	O=C1CC[C@@H](N2Cc3cc(Cn4ncc5c(-c6ncc(C7COC7)cc6Cl)cc(N6CC(F)C6)nc54)ccc3C2=O)C(=O)N1 (single isomer, unassigned) [Example 127]	8.94	37.97
≥ 1000	96.76	CN1CCN(c2cc(-c3ncc(C(F)(F)F)cc3Cl)c3cnn(Cc4ccc5c(c4)CN([C@H]4CCC(=O)NC4=O)C5=O)c3n2)CC1 [Example 136, (3S)-3-[5-({4-[3-chloro-5-(trifluoromethyl)pyridin-2-yl]-6-(4-methylpiperazin-1-yl)-1H-pyrazolo[3,4-b]pyridin-1-yl}methyl)-1-oxo-2,3-dihydro-1H-isoindol-2-yl]piperidine-2,6-dione]	≥ 10000	95.61
3.6	7.65	O=C1CC[C@H](N2Cc3c(ccc(Cn4ncc5c(-c6ncc(F)cc6Cl)cc(N6CC(F)C6)nc54)c3F)C2=O)C(=O)N1 (single isomer, unassigned) [Example 61]	7.1	35.56
8.4	5.59	O=C1CC[C@@H](N2Cc3cc(Cn4ncc5c(-c6ncc(C(F)(F)F)cc6Cl)c(F)c(N6CC(F)C6)nc54)ccc3C2=O)C(=O)N1 (single isomer, unassigned) [Example 78]	1.76	24.33
5.55	9.26	COc1cnc(-c2cc(N3CC(F)C3)nc3c2cnn3Cc2ccc3c(c2)CN(C2CCC(=O)NC2=O)C3=O)c(Cl)c1 (stereo not shown) [Example 69, 3-(5-{[4-(3-chloro-5-methoxypyridin-2-yl)-6-(3-fluoroazetidin-1-yl)-1H-pyrazolo[3,4-b]pyridin-1-yl]methyl}-1-oxo-2,3-dihydro-1H-isoindol-2-yl)piperidine-2,6-dione]	1.84	23.38
2	7.78	O=C1CC[C@H](N2Cc3cc(Cn4ncc5c(-c6ncc(OC(F)F)cc6Cl)cc(N6CC(F)C6)nc54)ccc3C2=O)C(=O)N1 [Example 49, (3S)-3-[5-({4-[3-chloro-5-(difluoromethoxy)pyridin-2-yl]-6-(3-fluoroazetidin-1-yl)-1H-pyrazolo[3,4-b]pyridin-1-yl}methyl)-1-oxo-2,3-dihydro-1H-isoindol-2-yl]piperidine-2,6-dione]	0.37	23.11
0.82	9.44	CCOc1cnc(-c2cc(N3CC(F)C3)nc3c2cnn3Cc2ccc3c(c2)CN([C@H]2CCC(=O)NC2=O)C3=O)c(C(F)(F)F)c1 [Example 32, (3S)-3-[5-({4-[5-ethoxy-3-(trifluoromethyl)pyridin-2-yl]-6-(3-fluoroazetidin-1-yl)-1H-pyrazolo[3,4-b]pyridin-1-yl}methyl)-1-oxo-2,3-dihydro-1H-isoindol-2-yl]piperidine-2,6-dione]	0.44	9.16
4.63	7.72	Cc1cc(OC(F)F)cnc1-c1cc(N2CC(F)C2)nc2c1cnn2Cc1ccc2c(c1)CN([C@H]1CCC(=O)NC1=O)C2=O [Example 66, (3S)-3-[5-({4-[5-(difluoromethoxy)-3-methylpyridin-2-yl]-6-(3-fluoroazetidin-1-yl)-1H-pyrazolo[3,4-b]pyridin-1-yl}methyl)-1-oxo-2,3-dihydro-1H-isoindol-2-yl]piperidine-2,6-dione]	1.72	27.43
1.8	17.06	O=C1CC[C@H](N2Cc3cc(Cn4ncc5c(-c6ncc(Cl)cc6F)cc(N6CC(F)C6)nc54)ccc3C2=O)C(=O)N1 [Example 47, (3S)-3-(5-{[4-(5-chloro-3-fluoropyridin-2-yl)-6-(3-fluoroazetidin-1-yl)-1H-pyrazolo[3,4-b]pyridin-1-yl]methyl}-1-oxo-2,3-dihydro-1H-isoindol-2-yl)piperidine-2,6-dione]	1.96	39.85
21.1	5.97	O=C1CCC(N2Cc3cc(Cn4cnc5c(-c6ncc(F)cc6Cl)cc(N6CC(F)C6)nc54)ccc3C2=O)C(=O)N1 (stereo not shown) [Example 25, 3-(5-((7-(3-chloro-5-fluoropyridin-2-yl)-5-(3-fluoroazetidin-1-yl)-3H-imidazo[4,5-b]pyridin-3-yl)methyl)-1-oxoisoindolin-2-yl)piperidine-2,6-dione]	146	46.08
65.3	53.22	C[C@]1(O)CCN(c2cc(-c3ccc(C#N)cc3F)c3cnn(Cc4ccc5c(c4)CN(C4CCC(=O)NC4=O)C5=O)c3n2)C1 (stereo partly drawn) [Example 115, 4-(1-{[2-(2,6-dioxopiperidin-3-yl)-1-oxo-2,3-dihydro-1H-isoindol-5-yl]methyl}-6-[(3S)-3-hydroxy-3-methylpyrrolidin-1-yl]-1H-pyrazolo[3,4-b]pyridin-4-yl)-3-fluorobenzonitrile]	118	59.97
20	17.46	CCOc1ccc(-c2cc(N3CC[C@](C)(O)C3)nc3c2cnn3Cc2ccc3c(c2)CN(C2CCC(=O)NC2=O)C3=O)c(Cl)c1 (stereo partly drawn) [Example 96, 3-(5-{[4-(2-chloro-4-ethoxyphenyl)-6-[(3S)-3-hydroxy-3-methylpyrrolidin-1-yl]-1H-pyrazolo[3,4-b]pyridin-1-yl]methyl}-1-oxo-2,3-dihydro-1H-isoindol-2-yl)piperidine-2,6-dione]	1.88	45.73
87.1	12.66	CN(c1cc(-c2ncc(C(F)(F)F)cc2Cl)c2cnn(Cc3ccc4c(c3)CN([C@H]3CCC(=O)NC3=O)C4=O)c2n1)[C@H]1C[C@@H](O)C1 [Example 120, (3R)-3-[5-({4-[3-chloro-5-(trifluoromethyl)pyridin-2-yl]-6-{methyl[(1s,3s)-3-hydroxycyclobutyl]amino}-1H-pyrazolo[3,4-b]pyridin-1-yl}methyl)-1-oxo-2,3-dihydro-1H-isoindol-2-yl]piperidine-2,6-dione]	3.03	28.57
9.06	5.83	Cc1cc(OC(C)C)cnc1-c1cc(N2CC(F)C2)nc2c1cnn2Cc1ccc2c(c1)CN(C1CCC(=O)NC1=O)C2=O (stereo not shown) [Example 80, 3-(5-{[6-(3-fluoroazetidin-1-yl)-4-[3-methyl-5-(propan-2-yloxy)pyridin-2-yl]-1H-pyrazolo[3,4-b]pyridin-1-yl]methyl}-1-oxo-2,3-dihydro-1H-isoindol-2-yl)piperidine-2,6-dione]	1.68	27.48
